Experimental data from patent US7795279B2, “Method of inhibiting FLT3 kinase” (Janssen Pharmaceutica NV, priority 2005, dated 2010).
Counter-ions that a name gives are not always drawn.

Columns and labels:
[1] = molecular target: T1, isolated kinase domain of the human FLT3 receptor (a.a. 571-993) (Homo sapiens, UniProt P36888); test: FLT3 fluorescence polarization kinase assay; assay type: biochemical; conditions: 10 nM FLT3 571-993, 150 uM ATP; uncertainty ±10%; read-out: Flt-3 Kinase IC50
T1 construct: human FLT3 receptor (a.a. 571-993)
T1 sequence (P36888 571-993): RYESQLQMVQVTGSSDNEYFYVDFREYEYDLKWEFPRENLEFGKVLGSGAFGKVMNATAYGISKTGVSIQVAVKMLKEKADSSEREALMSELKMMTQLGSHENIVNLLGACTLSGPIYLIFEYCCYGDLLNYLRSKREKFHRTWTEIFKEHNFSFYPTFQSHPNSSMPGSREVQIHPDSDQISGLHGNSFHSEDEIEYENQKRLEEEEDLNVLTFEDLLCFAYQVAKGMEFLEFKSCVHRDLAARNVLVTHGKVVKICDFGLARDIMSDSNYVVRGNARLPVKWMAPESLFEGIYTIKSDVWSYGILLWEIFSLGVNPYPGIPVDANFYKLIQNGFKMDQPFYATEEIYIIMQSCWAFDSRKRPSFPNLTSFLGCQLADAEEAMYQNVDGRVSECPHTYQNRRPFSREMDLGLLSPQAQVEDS
Excerpt: The FLT3 FP assay utilizes the fluorescein-labeled phosphopeptide and the anti-phosphotyrosine antibody included in the Panvera Phospho-Tyrosine Kinase Kit (Green) supplied by Invitrogen. When FLT3 phosphorylates polyGlu4Tyr, the fluorescein-labeled phosphopeptide is displaced from the anti-phosphotyrosine antibody by the phosphorylated poly Glu4Tyr, thus decreasing the FP value. […] The kinase reaction is stopped with the addition of EDTA. The fluorescein-labeled phosphopeptide and the anti-phosphotyrosine antibody are added and incubated for 30 minutes at room temperature.
Data points are an average of triplicate samples. Inhibition and IC50 data analysis was done with GraphPad Prism using a non-linear regression fit with a multiparamater, sigmoidal dose-response (variable slope) equation.

MV4-11 cells = test: Inhibition of MV4-11 cell proliferation (CellTiterGlo); assay type: cell-based; conditions: Homo sapiens, 72 hours growth, uncertainty ±20%
Protocol: To assess the cellular potency of compounds of the present invention, FLT3 specific growth inhibition was measured in the leukemic cell line MV4-11 (ATCC Number: CRL-9591). MV4-11 cells are derived from a patient with childhood acute myelomonocytic leukemia with an 11q23 translocation resulting in a MLL gene rearrangement and containing an FLT3-ITD mutation (AML subtype M4)(1,2). MV4-11 cells cannot grow and survive without active FLT3ITD.
To measure proliferation inhibition by compounds of the present invention, the luciferase based CellTiterGlo reagent (Promega), which quantifies total cell number based on total cellular ATP concentration, was used. Cells are plated at 10,000 cells per well in 100 ul of in RPMI media containing penn/strep, 10% FBS and 1 ng/ml GM-CSF or 1 ng/ml IL-3 for MV4-11 and Baf3 cells respectively.
Compound dilutions or 0.1% DMSO (vehicle control) are added to cells and the cells are allowed to grow for 72 hours at standard cell growth conditions (37° C., 5% CO2). For activity measurements in MV4-11 cells grown in 50% plasma, cells were plated at 10,000 cells per well in a 1:1 mixture of growth media and human plasma (final volume of 100 μL). To measure total cell growth an equal volume of CellTiterGlo reagent was added to each well, according to the manufacturer's instructions, and luminescence was quantified. Total cell growth was quantified as the difference in luminescent counts (relative light units, RLU) of cell number at Day 0 compared to total cell number at Day 3 (72 hours of growth and/or compound treatment). One hundred percent inhibition of growth is defined as an RLU equivalent to the Day 0 reading. Zero percent inhibition was defined as the RLU signal for the DMSO vehicle control at Day 3 of growth.
Data points are an average of triplicate samples. […] Inhibition and IC50 data analysis was done with GraphPad Prism using a non-linear regression fit with a multiparamater, sigmoidal dose-response (variable slope) equation.

Baf3 cells = test: Baf3 cell proliferation (non-specific toxicity control); assay type: cell-based, murine; conditions: Mus musculus, IL-3 driven
Excerpt: The IL-3 dependent, murine b-cell lymphoma cell line, Baf3, were used as a control to confirm the selectivity of compound inhibition of proliferation for representatives of the present invention by measuring non-specific growth inhibition by the compounds of the present invention (data not shown). To measure proliferation inhibition by compounds of the present invention, the luciferase based CellTiterGlo reagent (Promega), which quantifies total cell number based on total cellular ATP concentration, was used. […] Compound dilutions or 0.1% DMSO (vehicle control) are added to cells and the cells are allowed to grow for 72 hours at standard cell growth conditions (37° C., 5% CO2). […] To measure total cell growth an equal volume of CellTiterGlo reagent was added to each well, according to the manufacturer's instructions, and luminescence was quantified. Total cell growth was quantified as the difference in luminescent counts (relative light units, RLU) of cell number at Day 0 compared to total cell number at Day 3 (72 hours of growth and/or compound treatment). One hundred percent inhibition of growth is defined as an RLU equivalent to the Day 0 reading. Zero percent inhibition was defined as the RLU signal for the DMSO vehicle control at Day 3 of growth. MV4-11 cells express the FLT3 internal tandem duplication mutation, and thus are entirely dependent upon FLT3 activity for growth. […]

MV4-11 tumor xenografts = test: Nude mouse MV4-11 human tumor xenograft regression model; assay type: in vivo; conditions: for final tumor weight: study termination
Protocol: Female athymic nude mice (CD-1, nu/nu, 9-10 weeks old) were obtained from Charles River Laboratories (Wilmington, Mass.) and were maintained according to NIH standards. All mice were group housed (5 mice/cage) under clean-room conditions in sterile micro-isolator cages on a 12-hour light/dark cycle in a room maintained at 21-22° C. and 40-50% humidity. Mice were fed irradiated standard rodent diet and water ad libitum. All animals were housed in a Laboratory Animal Medicine facility that is fully accredited by the American Association for Assessment and Accreditation of Laboratory Animal Care (AAALAC). All procedures involving animals were conducted in compliance with the NIH Guide for the Care and Use of Laboratory Animals and all protocols were approved by an […] Animal Care and Use Committee (IACUC). The human leukemic MV4-11 cell line was obtained from the American Type Culture Collection (ATCC Number: CRL-9591) and propagated in RPMI medium containing 10% FBS (fetal bovine serum) and 5 ng/mL GM-CSF (R&D Systems). […] MV4-11 cells express constitutively active phosphorylated FLT3 receptor as a result of this naturally occurring FLT3/ITD mutation. Strong anti-tumor activity against MV4-11 tumor growth in the nude mouse tumor xenograft model is a desirable quality of the invention. […] Female athymic nude mice weighing no less than 20-21 grams were inoculated subcutaneously in the left inguinal region of the thigh with 5×10^6 tumor cells in a delivery volume of 0.2 mL. For regression studies, the tumors were allowed to grow to a pre-determined size prior to initiation of dosing.

[2] = Body weight and overt toxicity in the MV4-11 xenograft study; conditions: 11-day oral treatment, doses up to 200 mg/kg/day
Protocol: If tumors in the control mice reached ˜10% of body weight (˜2.0 grams), the study was to be terminated. […] During the study, tumor growth was measured three times-a-week (M, W, F) using electronic Vernier calipers. Tumor volume (mm^3) was calculated using the formula […], where L=length (mm) and W=width (shortest distance in mm) of the tumor. Body weight was measured three times-a-week and a loss of body weight >10% was used as an indication of lack of compound tolerability. Unacceptable toxicity was defined as body weight loss >20% during the study. Mice were closely examined daily at each dose for overt clinical signs of adverse, drug-related side effects.
Mice were weighed three times each week (M, W, F) during the study and were examined daily at the time of dosing for overt clinical signs of any adverse, drug-related side effects.

[3] = test system: FLT3 phosphorylation in MV4-11 tumors; test: FLT3 phosphorylation in MV4-11 tumors (immunoprecipitation / western blot); assay type: in vivo, mouse; conditions: tumors harvested 6 hours later
Protocol: Tumors were harvested 6 hours later and snap frozen for assessment of FLT3 phosphorylation by western blots.
Harvested tumors were frozen and processed for immunoblot analysis of FLT3 phosphorylation in the following manner: 200 mg of tumor tissue was dounce homogenized in lysis buffer (50 mM Hepes, 150 mM NaCl, 10% Glycerol, 1% Triton-X-100, 10 mM NaF, 1 mM EDTA, 1.5 mM MgCl2, 10 mM NaPyrophosphate) supplemented with phosphatase (Sigma Cat# P2850) and protease inhibitors (Sigma Cat #P8340). Insoluble debris was removed by centrifugation at 1000×g for 5 minutes at 4° C. […] Immunoprecipitated FLT3 from tumor lysates were then washed four times with lysis buffer and separated by SDS-PAGE. […] Blots were then stripped and reprobed with anti-FLT3 antibody for normalization of phosphorylation signals.

Cc1cscc1-c1cc(N2CCN(C)CC2)ccc1NC(=O)c1ccc(C#N)o1 [Example 5, 5-Cyano-furan-2-carboxylic acid [4-(4-methyl-piperazin-1-yl)-2-(4-methyl-thiophen-3-yl)-phenyl]-amide]
IC50 [1]: 10 nM | IC50 (MV4-11 cells): 666 nM

N#Cc1c[nH]c(C(=O)Nc2ccc(C3CCNCC3)cc2C2=CCCCC2)c1 [Example 13, 4-Cyano-1H-pyrrole-2-carboxylic acid (2-cyclohex-1-enyl-4-piperidin-4-yl-phenyl)-amide trifluoroacetic acid salt]
IC50 [1]: 29 nM

CN(C)CC(=O)N1CCC(c2ccc(NC(=O)c3nc(C#N)c[nH]3)c(C3=CCCCC3)c2)CC1 [Example 38, 4-Cyano-1H-imidazole-2-carboxylic acid {2-cyclohex-1-enyl-4-[1-(2-dimethylamino-acetyl)-piperidin-4-yl]-phenyl}-amide]
IC50 (MV4-11 cells): 23.5 nM | inhibition at 3 µM (Baf3 cells): < 50% | tumor growth delay compared to vehicle-treated control group (MV4-11 tumor xenografts; 10 mg/kg b.i.d. oral, 11 days): no significant growth delay | final tumor weight (MV4-11 tumor xenografts; 10 mg/kg b.i.d. oral): no significant decrease in final tumor weight | final tumor weight (MV4-11 tumor xenografts; 50 mg/kg b.i.d. oral): no measurable tumor mass detectable | effects on body weight [2]: no significant adverse effects on body weight | level of FLT3 phosphorylation in MV4-11 tumors versus vehicle ([3]; single dose 10 mg/kg po): partial reduction | level of FLT3 phosphorylation in MV4-11 tumors versus vehicle ([3]; single dose 100 mg/kg po): biologically significant reduction

CN(C)CC(=O)N1CCC(c2ccc(NC(=O)c3nc(C#N)c[nH]3)c(C3=CCC(C)(C)CC3)n2)CC1 [Example 55, 4-Cyano-1H-imidazole-2-carboxylic acid [1′-(2-dimethylamino-acetyl)-6-(4,4-dimethyl-cyclohex-1-enyl)-1′,2′,3′,4′,5′,6′-hexahydro-[2,4′]bipyridinyl-5-yl]-amide trifluoroacetic acid salt]
IC50 [1]: 34 nM
